Measured values taken from US20220389013A1, “PYRIDOPYRIMIDINONE COMPOUNDS AND APPLICATIONS THEREOF” (BeBetter Med Inc., priority 2020, published 2022).

What was measured:
H358 (KRAS G12C) = assay: Tumor cell proliferation inhibition assay (CellTiter-Glo), H358; format: cell-based, Human; conditions: 10% fetal bovine serum
Experimental: (§1) The H358, H23 or MIA-Paca2 cells were digested, centrifuged and resuspended, and the cell density was measured with a Scepter automatic cell counter. Cells were diluted to a solution containing 44,000 cells per milliliter, then added to a 96-well culture plate at 90 μL per well. The 96-well plate was placed in a 5% CO2 incubator at 37° C., and after the cells were cultured for 24 hours, different concentrations of the compounds to be tested were added. Cells were incubated with compounds in the presence of 10% fetal bovine serum for 72 hours. The inhibition of cell growth was assessed by measuring ATP levels by using the CellTiter-Glo Luminescent Cell Viability Assay Kit (details in manufacturer's instructions). In brief, 30 μL of CellTiter-Glo reagent was added to each well and the plate was shaken for 10 minutes to induce cell lysis, then the fluorescent signal was detected and recorded with a Fluoroskan Ascent FL (Thermo). Maximum signal values were obtained from cells treated with DMSO for 72 hours. Minimum signal values were obtained with medium only (zero cell number). Inhibition rate %=(maximum signal value-compound signal value)/(maximum signal value-minimum signal value)×100%. Data were processed by using Graphpad prism5 software. IC50 values were calculated using a sigmoidal dose-response curve.

MIA-Paca2 (KRAS G12C) = assay: Tumor cell proliferation inhibition assay (CellTiter-Glo), MIA-Paca2; format: cell-based, Human; conditions: 10% fetal bovine serum
Experimental: as §1

H23 (KRAS G12C) = assay: Tumor cell proliferation inhibition assay (CellTiter-Glo), H23; format: cell-based, Human; conditions: 10% fetal bovine serum
Experimental: as §1

KRAS-G12C/SOS1 = molecular target: T1, KRAS-G12C/SOS1 (Homo sapiens, UniProt P01116, G12C); assay: HTRF KRAS-G12C/SOS1 binding assay; conditions: 2 hours room temperature
T1 construct: purchased Cisbio #63ADK000CB16PEG
Experimental: 2) Diluted the compound to be tested with diluent into 10× stock solution, starting from a concentration of 10000 nM, diluting in 4-fold gradient and a total of 6 concentration gradients.
After incubated at room temperature for 15 minutes, added pre-mixed 5 uL of anti-Tag1-Tb^3+ and 5 uL of anti-Tag2-XL665. Sealed the plate and incubated at room temperature for 2 hours.
Data were processed by using Graphpad prism software.

[1] = Pharmacokinetic (PK) experiment in rats by gavage; format: in vivo; conditions: rat, plasma, po, male SD rats, 20 mg/kg; for AUC(0-t): read-out: AUC0-24
Experimental: Male SD rats, weighing 180-250 g, were fasted overnight before the test and stomach administrated with the test compound at 20 mg/kg. 15 minutes, 30 minutes, and 1, 2, 4, 6, 8, and 24 hours after administration, blood was taken from the end of the tail of the fracture, about 0.3 mL per time point, then placed in a centrifuge tube containing K2-EDTA, and centrifuged (2000 g, 10 min, at 4° C.). Plasma was collected and stored in an ultra-low temperature freezer at −80° C. 50 μL of plasma samples were vortexed with 135 μL of acetonitrile (containing 1 μg/mL internal standard) for protein precipitation and centrifuged, and the supernatant was collected for LC-MS/MS analysis.
After the rats oral administrated with the Pyridopyrimidinone compounds provided by the present disclosure, the absorption is good, and the blood exposure is relatively high. […] Cmax refers to the maximum plasma concentration, T1/2 is the half-life, AUC0-24 refers to the area under the 0-24 hour time-concentration curve, and AUC0-inf refers to the area under the 0-Inf time-concentration curve.

T1 sequence (P01116 1-188 isoform P01116-2 G12C): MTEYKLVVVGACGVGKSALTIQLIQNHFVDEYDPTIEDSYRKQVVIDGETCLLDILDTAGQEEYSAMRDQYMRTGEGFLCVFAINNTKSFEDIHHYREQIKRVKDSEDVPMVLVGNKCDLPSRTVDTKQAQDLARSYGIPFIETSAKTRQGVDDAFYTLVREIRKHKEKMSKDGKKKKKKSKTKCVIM

| SMILES | IC50 (H358 (KRAS G12C); 72 hours) | melting point | IC50 (MIA-Paca2 (KRAS G12C); 72 hours) | IC50 (H23 (KRAS G12C); 72 hours) | IC50 (H358 (KRAS G12C); Homo sapiens, NCI-H358, 72 h) | IC50 (MIA-Paca2 (KRAS G12C); Homo sapiens, MIA PaCa-2, 72 h) | IC50 (KRAS-G12C/SOS1) | AUC(0-inf) [1] | Cmax [1] | Tmax [1] | half-life [1] | AUC(0-t) [1] | IC50 (H23 (KRAS G12C); Homo sapiens, 72 h) |
| --- | --- | --- | --- | --- | --- | --- | --- | --- | --- | --- | --- | --- | --- |
| C=CC(=O)N1C[C@H](C)N(c2nc(=O)n(-c3c(C)ccnc3C(C)C)c3nc(-c4c(F)c(F)cc5ccoc45)c(F)cc23)C[C@H]1C (atropisomer, axis not shown; (P)) [Compound 91-2, 4-((2S,5R)-4-acryloyl-2,5-dimethylpiperazin-1-yl)-7-(5,6-difluorobenzofuran-7-yl)-6-fluoro-1(P)-(2-isopropyl-4-methylpyridin-3-yl)pyrido[2,3-d]pyrimidin-2(1H)-one] | > 500 nM | 161 to 173 °C | > 500 nM | 50 to 100 nM |  |  |  |  |  |  |  |  |  |
| C=CC(=O)N1CCN(c2nc(=O)n(-c3c(C)ccnc3C(C)C)c3nc(-c4c(F)ccc5ccoc45)c(F)cc23)[C@@H](C)C1 [Compound 70, 4-((S)-4-acryloyl-2-methylpiperazin-1-yl)-6-fluoro-7-(6-fluorobenzofuran-7-yl)-1-(2-isopropyl-4-methylpyridin-3-yl)pyrido[2,3-d]pyrimidin-2(1H)-one] |  |  |  |  | 10 to 50 nM | 10 to 50 nM | 100 to 500 nM |  |  |  |  |  |  |
| C=CC(=O)N1C[C@H](C)N(c2nc(=O)n(-c3c(C)ccnc3C(C)C)c3nc(-c4c(F)ccc5ccoc45)c(Cl)cc23)C[C@H]1C (atropisomer, axis not shown; (P)) [Compound 90-2, 4-((2S,5R)-4-acryloyl-2,5-dimethylpiperazin-1-yl)-6-chloro-7-(6-fluorobenzofuran-7-yl)-1(P)-(2-isopropyl-4-methylpyridin-3-yl)pyrido[2,3-d]pyrimidin-2(1H)-one] | 50 to 100 nM | 152 to 161 °C | 50 to 100 nM | < 10 nM |  |  |  |  |  |  |  |  |  |
| C=CC(=O)N1C[C@H](C)N(c2nc(=O)n(-c3c(C)ccnc3C(C)C)c3nc(-c4c(F)c(F)cc5ccoc45)c(Cl)cc23)C[C@H]1C (atropisomer, axis not shown; (P)) [Compound 104-2, 4-((2S,5R)-4-acryloyl-2,5-dimethylpiperazin-1-yl)-6-chloro-7-(5,6-difluorobenzofuran-7-yl)-1(P)-(2-isopropyl-4-methylpyridin-3-yl)pyrido[2,3-d]pyrimidin-2(1H)-one] | 100 to 500 nM | 153 to 162 °C | 100 to 500 nM | 10 to 50 nM |  |  |  |  |  |  |  |  |  |
| C=CC(=O)N1CCN(c2nc(=O)n(-c3c(C)ccnc3C(C)C)c3nc(-c4c(F)ccc5ccoc45)c(Cl)cc23)[C@@H](C)C1 (single isomer, unassigned) [Compound 73-2] | 10 to 50 nM |  | 100 to 500 nM | < 10 nM |  |  | 100 to 500 nM |  |  |  |  |  |  |
| C=CC(=O)N1CCN(c2nc(=O)n(-c3c(C)ccnc3C(C)C)c3nc(-c4c(F)ccc5c4OCC5)c(F)cc23)[C@@H](C)C1 [Compound 79, 4-((S)-4-acryloyl-2-methylpiperazin-1-yl)-6-fluoro-7-(6-fluoro-2,3-dihydrobenzofuran-7-yl)-1-(2-isopropyl-4-methylpyridin-3-yl)pyrido[2,3-d]pyrimidin-2(1H)-one] |  |  |  |  | 10 to 50 nM | 10 to 50 nM | 100 to 500 nM |  |  |  |  |  |  |
| C=CC(=O)N1CCN(c2nc(=O)n(-c3c(C)ccnc3C(C)C)c3nc(-c4c(F)ccc5ccoc45)c(Cl)cc23)[C@@H](C)C1 [Compound 73, 4-((S)-4-acryloyl-2-methylpiperazin-1-yl)-6-chloro-7-(6-fluorobenzofuran-7-yl)-1-(2-isopropyl-4-methylpyridin-3-yl)pyrido[2,3-d]pyrimidin-2(1H)-one] |  |  |  |  | < 10 nM | < 10 nM | < 50 nM | 8640 ng·h/mL | 3360 ng/mL | 1 h | 238 min | 8630 ng·h/mL | < 10 nM |
| C=CC(=O)N1CCN(c2nc(=O)n(-c3c(C(C)C)ccnc3C(C)C)c3nc(-c4c(F)ccc5ccoc45)c(Cl)cc23)[C@@H](C)C1 [Compound 122, 4-((S)-4-acryloyl-2-methylpiperazin-1-yl)-6-chloro-1-(2,4-diisopropylpyridin-3-yl)-7-(6-fluorobenzofuran-7-yl)pyrido[2,3-d]pyrimidin-2(1H)-one] |  | 162 to 173 °C |  |  | < 10 nM | < 10 nM | < 50 nM | 6000 ng·h/mL | 1630 ng/mL | 1.67 h | 218 min | 5990 ng·h/mL |  |
| C=CC(=O)N1C[C@H](C)N(c2nc(=O)n(-c3c(C)ccnc3C(C)C)c3nc(-c4c(F)c(F)cc5ccoc45)c(Cl)cc23)C[C@H]1C [Compound 104, 4-((2S,5R)-4-acryloyl-2,5-dimethylpiperazin-1-yl)-6-chloro-7-(5,6-difluorobenzofuran-7-yl)-1-(2-isopropyl-4-methylpyridin-3-yl)pyrido[2,3-d]pyrimidin-2(1H)-one] | < 10 nM |  | 10 to 50 nM |  |  |  |  | 13000 ng·h/mL | 2110 ng/mL | 2 h | 148 min | 13000 ng·h/mL | < 10 nM |
| C=CC(=O)N1C[C@H](C)N(c2nc(=O)n(-c3c(C)ccnc3C(C)C)c3nc(-c4c(F)ccc5ccoc45)c(F)cc23)C[C@H]1C (single isomer, unassigned) [Compound 89-1] |  | 275 to 277 °C |  |  | 10 to 50 nM | 10 to 50 nM | 50 to 100 nM | 9020 ng·h/mL | 3200 ng/mL | 1 h | 186 min | 9010 ng·h/mL |  |
| C=CC(=O)N1CCN(c2nc(=O)n(-c3c(C)ccnc3C(C)C)c3nc(-c4c(F)c(F)cc5ccoc45)c(F)cc23)[C@@H](C)C1 (single isomer, unassigned) [Compound 74-1] |  |  |  |  | 10 to 50 nM | 10 to 50 nM | 50 to 100 nM | 6220 ng·h/mL | 3180 ng/mL | 0.83 h | 318 min | 6200 ng·h/mL | < 10 nM |
| C=CC(=O)N1CCN(c2nc(=O)n(-c3c(C)ccnc3C(C)C)c3nc(-c4c(F)ccc5c4OCO5)c(Cl)cc23)[C@@H](C)C1 [Compound 97, 4-((S)-4-acryloyl-2-methylpiperazin-1-yl)-6-chloro-7-(5-fluorobenzo[d][1,3]dioxol-4-yl)-1-(2-isopropyl-4-methylpyridin-3-yl)pyrido[2,3-d]pyrimidin-2(1H)-one] |  |  |  |  | < 10 nM | 10 to 50 nM | 50 to 100 nM | 10400 ng·h/mL | 4660 ng/mL | 1 h | 359 min | 10400 ng·h/mL |  |
| C=CC(=O)N1CCN(c2nc(=O)n(-c3c(C)ccnc3C(C)C)c3nc(-c4c(F)ccc5ccoc45)c(F)cc23)[C@@H](C)C1 (single isomer, unassigned) [Compound 70-2] | 100 to 500 nM |  | > 500 nM | 50 to 100 nM |  |  | > 1000 nM |  |  |  |  |  |  |
| C=CC(=O)N1CCN(c2nc(=O)n(-c3c(C)ccnc3C(C)C)c3nc(-c4c(F)c(F)cc5ccoc45)c(Cl)cc23)[C@@H](C)C1 [Compound 103, 4-((S)-4-acryloyl-2-methylpiperazin-1-yl)-6-chloro-7-(5,6-difluorobenzofuran-7-yl)-1-(2-isopropyl-4-methylpyridin-3-yl)pyrido[2,3-d]pyrimidin-2(1H)-one] | < 10 nM |  | 10 to 50 nM |  |  |  |  | 9420 ng·h/mL | 3310 ng/mL | 1 h | 226 min | 9400 ng·h/mL | < 10 nM |
